Laboratory results reported in patent US6066642A, “Dihydropyridine-, pyridine-, benzopyran-4-one- and triazoloquinazoline derivative, their preparation and their use as adenosine receptor antagonists” (priority 1998, dated 2000).
Read-outs that look alike come from different tables or passages of the source.

Columns and labels:
A1 receptors = molecular target: T1, A1 receptors (Rattus norvegicus, UniProt P25099); assay: biochemical; assay type: binding; settings: for inhibition at 100 µM: 10^-4 M
T1 sequence (P25099 1-326): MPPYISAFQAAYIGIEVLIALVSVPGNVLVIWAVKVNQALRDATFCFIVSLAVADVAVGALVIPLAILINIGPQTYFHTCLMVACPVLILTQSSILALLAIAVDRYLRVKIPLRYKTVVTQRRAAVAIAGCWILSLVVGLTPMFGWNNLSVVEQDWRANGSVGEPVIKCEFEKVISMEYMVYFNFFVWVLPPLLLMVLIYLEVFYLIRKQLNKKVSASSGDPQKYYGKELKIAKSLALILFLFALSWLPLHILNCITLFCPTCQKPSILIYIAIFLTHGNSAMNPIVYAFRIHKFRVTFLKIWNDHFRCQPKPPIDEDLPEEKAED
Experimental: ^a Displacement of specific [^3 H] PIA binding in rat brain
percentage of specific binding displaced at 100 μM.

A2a receptors = molecular target: T2, A2a receptors (Rattus norvegicus, UniProt P30543); assay: radioligand binding, displacement of specific [3H]CGS 21680 binding in rat striatal membranes; settings: for inhibition at 100 µM: 10^-4 M
T2 construct: Displacement of specific [^3 H]; from tissue; host or cells: rat striatal membranes
Experimental: ^b Displacement of specific [^3 H]
or as a percentage of specific binding displaced at 100 μM.

human A3 receptors = molecular target: T3, human A3 receptors (Homo sapiens, UniProt P0DMS8); assay: radioligand binding, displacement of specific [125I]AB-MECA binding at human A3 receptors expressed in HEK-293 cells; settings: for inhibition at 100 µM: 10^-4 M; for Ki: [125I]AB-MECA; for inhibition at 10 µM: 10^-5 M
T3 construct: expressed in transfected cells; host or cells: HEK-293 cells (membranes)
T3 sequence (P0DMS8 1-318): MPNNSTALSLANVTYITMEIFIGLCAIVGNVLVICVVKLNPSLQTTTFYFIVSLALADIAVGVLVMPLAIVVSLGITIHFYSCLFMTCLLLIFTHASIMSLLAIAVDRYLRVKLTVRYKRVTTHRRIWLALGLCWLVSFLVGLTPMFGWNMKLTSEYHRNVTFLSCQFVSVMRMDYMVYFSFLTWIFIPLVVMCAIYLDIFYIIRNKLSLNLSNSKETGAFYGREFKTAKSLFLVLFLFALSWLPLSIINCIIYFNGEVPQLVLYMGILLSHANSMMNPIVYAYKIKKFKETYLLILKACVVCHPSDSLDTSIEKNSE
Experimental: A3 receptors expressed in HEK293 cells, in membranes, expressed as
binding displaced at 100 μM.

[1] = Table 6, [3H]PIA, rat brain membranes, read-out: K2 (rA1)
[2] = Table 6, [3H]CGS 21680, rat striatal membranes, read-out: K2 (rA2a)
[3] = Table 6, read-out: % inhibition hA3
[4] = Table 3, read-out: displacement of specific binding rA1
[5] = Table 3, read-out: displacement of specific binding rA2a
[6] = Table 15, [3H]PIA, rat brain membranes, read-out: Ki rA1
[7] = Table 15, [3H]CGS 21680, rat striatal membranes, read-out: Ki rA2A
[8] = Table 15, HEK membranes, read-out: Ki hA3
[9] = Table 6, HEK-293 membranes, read-out: K2 (hA3)
[10] = Table 9, [3H]PIA, rat brain membranes, read-out: Ki rA1
[11] = Table 9, HEK membranes, read-out: Ki hA3
[12] = Table 7, [3H]PIA, rat brain membranes, read-out: Ki (rA1)
[13] = Table 7, [3H]CGS 21680, rat striatal membranes, read-out: Ki (rA2A)
[14] = Table 7, read-out: % of specific binding displaced hA3
[15] = Table 7, read-out: displacement of specific binding hA3
[16] = Table 7, read-out: displacement of specific binding rA2A

T2 sequence (P30543 whole entry): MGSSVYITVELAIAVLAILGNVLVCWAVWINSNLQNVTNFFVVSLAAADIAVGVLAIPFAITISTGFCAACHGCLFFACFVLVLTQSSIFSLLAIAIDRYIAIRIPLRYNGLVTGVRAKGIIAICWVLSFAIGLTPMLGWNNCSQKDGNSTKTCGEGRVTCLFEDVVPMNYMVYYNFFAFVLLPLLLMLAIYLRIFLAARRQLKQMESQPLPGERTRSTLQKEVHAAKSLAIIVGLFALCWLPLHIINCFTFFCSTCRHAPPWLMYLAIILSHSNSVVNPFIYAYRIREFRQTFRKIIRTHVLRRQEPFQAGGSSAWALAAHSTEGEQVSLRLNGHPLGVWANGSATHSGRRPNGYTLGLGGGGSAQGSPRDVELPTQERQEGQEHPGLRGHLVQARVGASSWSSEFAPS

COc1ccc(-c2cc(=O)c3ccc(O)cc3o2)cc1OC [Compound 27, reference compound]
Ki (A1 receptors; [1]): 18800 ± 3600 nM
Ki (A2a receptors; [2]): 35400 ± 7300 nM
inhibition at 100 µM (human A3 receptors; [3]): 32 ± 4%

CCOc1ccc(-c2oc3cc(OCC)cc(O)c3c(=O)c2OCC)c(OCC)c1 [Compound 7, 2',4',3,7-Tetraethoxy-5-hydroxymorin]
inhibition at 100 µM (A1 receptors; [4]): < 10%
inhibition at 100 µM (A2a receptors; [5]): < 10%
Ki (human A3 receptors; Table 3, HEK-293 membranes, read-out: Ki hA3): 4830 ± 1400 nM
rA1/hA3 (human A3 receptors; Table 3, ratio of Ki): > 40

NCCCC(=O)Nc1nc2ccc(Cl)cc2c2nc(-c3ccco3)nn12 [Compound 155]
Ki (A1 receptors; [6]): 11.3 ± 2.4 nM
Ki (A2a receptors; [7]): 14 nM
Ki (human A3 receptors; [8]): 15.2 ± 6.6 nM

CCCC(=O)Nc1nc2ccc(Cl)cc2c2nc(-c3ccco3)nn12 [Compound 147, 5-Butyrylamino-9-chloro-2-(2-furyl)[1,2,4]triazolo[1,5-c]quinazoline]
Ki (A1 receptors; [6]): 32.5 ± 9.4 nM
Ki (A2a receptors; [7]): 4 nM
rA1/hA3 (human A3 receptors): 2.2
Ki (human A3 receptors; [8]): 14.6 ± 2.8 nM

COc1c2ccoc2cc2oc(C=Nc3ccccc3)cc(=O)c12 [Compound 24, 4-methoxy-7-(CH=N-phenyl)visnagin]
inhibition at 100 µM (A1 receptors; Table 5, read-out: displacement of specific binding rA1): < 10%
inhibition at 100 µM (A2a receptors; Table 5, read-out: displacement of specific binding rA2a): < 10%
rA1/hA3 (human A3 receptors; Table 5, ratio of Ki): > 20

O=c1cc(-c2ccccc2)oc2cc(O)ccc12 [Compound 26, reference compound]
Ki (A1 receptors; [1]): 3030 ± 490 nM
Ki (A2a receptors; striatal membranes, read-out: K2 (rA2a)): 2680 ± 680 nM
inhibition at 100 µM (human A3 receptors; [3]): 41 ± 7%

COc1ccc(-c2cc(=O)c3c(O)cc(C)cc3o2)cc1 [Compound 29, reference compound]
Ki (A1 receptors; brain membranes, read-out: K2 (rA1)): 3400 ± 350 nM
Ki (A2a receptors; [2]): 28000 ± 7350 nM
Ki (human A3 receptors; [9]): 6700 ± 1780 nM

CCOC(=O)C1=C(C)NC(C)=C(C(=O)OC)C1C#Cc1ccccc1 (stereo not drawn) [Compound 76]
Ki (A1 receptors; [10]): 5390 ± 330 nM
greater affinity to A1 than A2a adenosine receptors (A1 receptors; selectivity in words): greater affinity to A1 adenosine receptors than A2a receptors
Ki (A2a receptors; Table 9, [3H]CGS 21680, rat striatal membranes, read-out: Ki rA2A): 38300 ± 7900 nM
Ki (human A3 receptors; [11]): 940 ± 700 nM
greater affinity for A3 than A1 or A2a adenosine receptors (human A3 receptors; selectivity in words): greater affinity for A3 adenosine receptors than A1 or A2a adenosine receptors

COc1ccc2oc(C#Cc3ccccc3)c(O)c(=O)c2c1 [Compound 10, 2-phenylacetylenyl-3-hydroxy-6-methoxyflavone]
inhibition at 100 µM (A1 receptors; [4]): < 10%
inhibition at 100 µM (A2a receptors; [5]): < 10%
rA1/hA3 (human A3 receptors): > 8

O=c1cc(-c2ccccc2)oc2c1ccc1ccccc12 [Compound 43, α-naphthoflavone, reference compound]
Ki (A1 receptors; [12]): 786 nM
Ki (A2a receptors; [13]): 1320 ± 430 nM
inhibition at 10 µM (human A3 receptors; [14]): 71 ± 2%

O=C(Nc1nc2ccc(Cl)cc2c2nc(-c3ccco3)nn12)c1ccccc1 [Compound 151, 5-Benzoylamino-9-chloro-2-(2-furyl)[1,2,4]triazolo[1,5-c]quinazoline]
Ki (A1 receptors; [6]): 665 ± 82 nM
Ki (A2a receptors; [7]): 349 ± 42 nM
Ki (human A3 receptors; [8]): 4.05 ± 1.39 nM
rA1/hA3 (human A3 receptors; Table 15, ratio of Ki): 164
rA2A/hA1 (human A3 receptors; Table 15, ratio of Ki): 86

CCOC(=O)c1c(C)nc(C)c(C(=O)OC)c1C [Compound 80]
Ki (A1 receptors; Table 10, [3H]PIA, rat brain membranes, read-out: Ki rA1): 6950 ± 2660 nM
Ki (A2a receptors; Table 10, [3H]CGS 21680, rat striatal membranes, read-out: Ki rA2a): 8960 ± 930 nM
Ki (human A3 receptors; Table 10, HEK membranes, read-out: Ki hA3): 29500 ± 2100 nM

CCn1c2c(c3cc4c(cc3c1=O)OCO4)C(=O)CCC2 [Compound 46, reference compound]
Ki (A1 receptors; [12]): 7590 ± 2140 nM
Ki (A2a receptors; [13]): 6980 ± 2210 nM
inhibition at 100 µM (human A3 receptors; [14]): 19 ± 3%

COc1ccc(-c2cc(=O)c3c(O)cc(OC)cc3o2)cc1 [Compound 30, reference compound]
inhibition at 100 µM (A1 receptors; Table 6, read-out: displacement of specific binding rA1): < 10%
inhibition at 100 µM (A2a receptors; Table 6, read-out: displacement of specific binding rA2a): < 10%
inhibition at 10 µM (human A3 receptors; [3]): 69 ± 7%

Oc1cc2c(cc1O)[C@@H]1c3ccc(O)c(O)c3OC[C@]1(O)C2 [Compound 50, hematoxylin, reference compound]
Ki (A1 receptors; [12]): 3100 ± 600 nM
inhibition at 100 µM (A2a receptors; Table 7, read-out: % of specific binding displaced rA2A): 28 ± 2%
inhibition at 100 µM (human A3 receptors; [15]): < 10%

O=c1cc(-c2ccccc2)oc2ccc3ccccc3c12 [Compound 44, β-naphthoflavone, reference compound]
Ki (A1 receptors; [12]): 8800 ± 3600 nM
inhibition at 100 µM (A2a receptors; [16]): < 10%
inhibition at 10 µM (human A3 receptors; [14]): 12 ± 1%

CC(C)(C)C(=O)Nc1nc2ccc(Cl)cc2c2nc(-c3ccco3)nn12 [Compound 149, 9-Chloro-2-(2-furyl)-5-trimethylacetylamino[1,2,4]triazolo [1,5-c]quinazoline]
Ki (A1 receptors; [6]): 205 ± 20 nM
Ki (A2a receptors; [7]): 60 nM
Ki (human A3 receptors; [8]): 244 ± 6 nM
rA1/hA3 (human A3 receptors; Table 15, ratio of Ki): 0.84

CCCCC(=O)Nc1nc2ccc(Cl)cc2c2nc(-c3ccco3)nn12 [Compound 148, 9-Chloro-2-(2-furyl)-5-pentanoylamino[1,2,4]triazolo[1,5-c]quinazoline]
Ki (A1 receptors; [6]): 28.9 ± 3.7 nM
Ki (A2a receptors; [7]): 16 nM
Ki (human A3 receptors; [8]): 21.5 ± 6.2 nM
rA1/hA3 (human A3 receptors; Table 15, ratio of Ki): 1.3

O=c1cc(-c2ccc(O)cc2)oc2cc(O)cc(O)c12 [Compound 28, apigenin, reference compound]
Ki (A1 receptors; [1]): 3000 ± 290 nM
Ki (A2a receptors; [2]): 7580 ± 1230 nM
inhibition at 10 µM (human A3 receptors; [3]): 63 ± 1%

O=C(Nc1nc2ccc(Cl)cc2c2nc(-c3ccc(Br)o3)nn12)c1ccccc1 [Compound 156]
Ki (A1 receptors; [6]): > 1000 nM
Ki (A2a receptors; [7]): > 1000 nM
Ki (human A3 receptors; [8]): 856 ± 156 nM

CCC(=O)Nc1nc2ccc(Cl)cc2c2nc(-c3ccco3)nn12 [Compound 146, 9-Chloro-2-(2-furyl)-5-propionylamino[1,2,4]triazolo[1,5-c]quinazoline]
Ki (A1 receptors; [6]): 283 ± 42 nM
Ki (A2a receptors; [7]): 106 ± 30 nM
Ki (human A3 receptors; [8]): 7.66 ± 3.03 nM
rA1/hA3 (human A3 receptors; Table 15, ratio of Ki): 40
rA2A/hA1 (human A3 receptors; Table 15, ratio of Ki): 14

COc1cc2c3c(c1)c1cc4c(cc1c(=O)n3CC2)OCO4 [Compound 47, oxogalanthine lactam, reference compound]
Ki (A1 receptors; [12]): 5550 ± 830 nM
inhibition at 100 µM (A2a receptors; [16]): < 10%
inhibition at 100 µM (human A3 receptors; [15]): < 10%

COCCOC(=O)C1=C(C)NC(C)=C(C(=O)OC(C)C)C1c1cccc([N+](=O)[O-])c1 (stereo not drawn) [Compound 64, reference compound]
Ki (A1 receptors; [10]): 20100 nM
greater affinity to A1 than A2a adenosine receptors (A1 receptors; selectivity in words): greater affinity to A1 adenosine receptors than A2a receptors
Ki (human A3 receptors; [11]): 8470 nM
greater affinity for A3 than A1 or A2a adenosine receptors (human A3 receptors; selectivity in words): greater affinity for A3 adenosine receptors than A1 or A2a adenosine receptors

COc1cc(OC)c2c(=O)c(OC)c(-c3cc(OC)c(OC)c(OC)c3)oc2c1 [Compound 39, hexamethylmyricetin]
inhibition at 1 µM (A1 receptors; Table 6, 10^-6 M, read-out: displacement of specific binding rA1): < 10%
Ki (human A3 receptors; [9]): 16200 ± 2200 nM

COC(=O)C1=C(C)NC(C)=C(C(=O)OCCCN2CCC(c3ccccc3)(c3ccccc3)CC2)C1c1cccc([N+](=O)[O-])c1 (stereo not drawn) [Compound 65, reference compound]
greater affinity to A1 than A2a adenosine receptors (A1 receptors): greater affinity to A1 adenosine receptors than A2a receptors
greater affinity for A3 than A1 or A2a adenosine receptors (human A3 receptors): greater affinity for A3 adenosine receptors than A1 or A2a adenosine receptors
